According to patent EP0987268B1, “Pharmaceutical agents containing epothilone A-N-oxide and/or epothilone B-N-oxide” (Gesellschaft für Biotechnologische Forschung mbH (GBF), priority 1998, dated 2000):

Columns and labels:
Format in all cases: cell-based
[1] = test system: mouse fibroblast L929 (ATCC CCL1); experiment: Cytotoxic activity, L929 cells; conditions: cell line mouse fibroblast L929 (ATCC CCL1)
[2] = test system: human lung carcinoma A-549 (DSM ACC 107); experiment: Cytotoxic activity, A-549 cells; conditions: A549, cell line human lung carcinoma A-549 (DSM ACC 107)
[3] = test system: human cervix carcinoma KB 3.1 (DSM ACC 158); experiment: Cytotoxic activity, KB 3.1 cells; conditions: KB 3-1, cell line human cervix carcinoma KB 3.1 (DSM ACC 158)

SMILES: C/C(=C\c1csc(C)[n+]1[O-])[C@@H]1C[C@@H]2O[C@]2(C)CCC[C@H](C)[C@H](O)[C@@H](C)C(=O)C(C)(C)[C@@H](O)CC(=O)O1 [epothilone B-N-oxide]
- IC50 [1]: 4 nM
- IC50 [2]: 1.5 nM
- IC50 [3]: 2 nM
